Eleven compounds from ChEMBL document CHEMBL1201862, “PubChem BioAssay data set” (2004) can be followed below.

Test systems include CCRF-CEM; K562; LOX IMVI; M14; OVCAR-3; OVCAR-4; OVCAR-8; RPMI-8226; SF-268; SK-MEL-5; SK-OV-3; SNB-19; SNB-75; SR; SW-620; TK-10; UO-31; HT-29.
What all share (test): NCI anticancer screen, dose series, 48 h

SMILES strings stand for the structures.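 All cell lines were grown in 96-well plates and treated with compound for 48 hours. Abbreviation: GI50, concentration required for 50% inhibition of growth.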 Calls of active or inactive are those of the source. Rule as the data show it: active = GI50 up to about 1.1 µM and inactive = higher. Some results are limits rather than exact numbers.

For `O=C1c2c(c(-c3ccccc3)c(-c3ccccc3)c(-c3ccccc3)c2-c2ccccc2)C(=O)N1c1cccc(Br)c1`, the GI50 with CCRF-CEM was > 100 µM (inactive); in the assay on K562, > 100 µM (inactive); in the assay on LOX IMVI it was > 100 µM (inactive); in the assay with M14, 58.3 µM (inactive); with OVCAR-3, > 100 µM (inactive); in the assay with OVCAR-4, > 100 µM (inactive). Besides, the GI50 with OVCAR-8, with RPMI-8226, in the assay on SF-268, in the assay on SK-MEL-5, with SK-OV-3 and in the assay with SNB-19 was > 100 µM (inactive) throughout. In addition, the GI50 with SNB-75, in the assay on SR, in the assay on SW-620, in the assay with TK-10 and with UO-31 was > 100 µM (inactive) each time.

In the case of `O=C(NC(=O)c1cn(CCNCCO)c(=O)[nH]c1=O)OCc1ccccc1`, the GI50 in the assay with CCRF-CEM, with HT-29, in the assay with K562, with LOX IMVI, with M14 and in the assay on OVCAR-3 was > 100 µM (inactive) each time. Besides, the GI50 with OVCAR-4, in the assay on OVCAR-8, in the assay with RPMI-8226, with SF-268, with SK-MEL-5 and in the assay on SK-OV-3 was > 100 µM (inactive) in each case. In addition, the GI50 in the assay on SNB-75 is 45.9 µM (inactive); in the assay on SR it was > 100 µM (inactive); in the assay with SW-620 it was > 100 µM (inactive); in the assay on TK-10 it was > 100 µM (inactive).

As to `CN(C)CCONC(=O)C12CC3CC(CC(C3)C1)C2`, the GI50 with CCRF-CEM, in the assay on HT-29, in the assay on K562, in the assay with LOX IMVI, in the assay with M14 and in the assay with OVCAR-3 was > 100 µM (inactive) in each case. The GI50 in the assay on OVCAR-8, in the assay on RPMI-8226, with SF-268, in the assay with SK-MEL-5, in the assay on SK-OV-3 and in the assay on SNB-19 was > 100 µM (inactive) throughout. In addition, the GI50 in the assay with SNB-75, in the assay with SR, in the assay with TK-10 and with UO-31 was > 100 µM (inactive) each time.

Regarding `CN(C)/N=C(/c1nc2ccc([N+](=O)[O-])cc2nc1O)C(O)c1ccco1` (stereo not drawn), the GI50 in the assay on CCRF-CEM was > 100 µM (inactive); in the assay with HT-29, > 100 µM (inactive); with K562, > 100 µM (inactive); in the assay on LOX IMVI it was 50 µM (inactive); in the assay with M14 it was > 100 µM (inactive); with OVCAR-3, > 100 µM (inactive). The GI50 with OVCAR-4 was > 100 µM (inactive); in the assay with OVCAR-8 it was > 100 µM (inactive); in the assay with RPMI-8226 it was > 100 µM (inactive); in the assay with SF-268, 84.9 µM (inactive); in the assay on SK-MEL-5, 70.1 µM (inactive); with SK-OV-3, > 100 µM (inactive). Also, the GI50 in the assay on SNB-19 was > 100 µM (inactive); with SNB-75 it was > 100 µM (inactive); in the assay with SR it was > 100 µM (inactive); with SW-620, 92.3 µM (inactive); in the assay on UO-31 it was 2.51 µM (inactive).

Regarding `COc1cc(OC)c2c(c1)C(=O)C(CC(C)O)=CC2=O` (stereo not drawn), the GI50 was 4.22 µM (inactive) in the assay on CCRF-CEM; 19.1 µM (inactive) in the assay with HT-29; 14.9 µM (inactive) with K562; 5.97 µM (inactive) in the assay on LOX IMVI; 18.5 µM (inactive) in the assay with M14; 5.82 µM (inactive) in the assay with OVCAR-3. The GI50 in the assay with OVCAR-4 was 17.8 µM (inactive); in the assay with OVCAR-8, 15.7 µM (inactive); in the assay with RPMI-8226, 11.5 µM (inactive); in the assay with SF-268, 18.2 µM (inactive); with SK-MEL-5, 14.7 µM (inactive); in the assay with SK-OV-3, 18 µM (inactive). In addition, the GI50 in the assay with SNB-19 was 17.7 µM (inactive); with SNB-75, 25.8 µM (inactive); with SR, 2 µM (inactive); with SW-620 it was 17.8 µM (inactive); in the assay on TK-10, 19.9 µM (inactive); with UO-31 it was 16.3 µM (inactive).

As for `CCc1cccc(C(C)CC)c1/N=C(/NC(=O)c1ccccc1C(=O)N/C(=N/c1c(CC)cccc1C(C)CC)SC)SC` (stereo not drawn), the GI50 was 27.5 µM (inactive) in the assay with CCRF-CEM; 40.4 µM (inactive) in the assay on HT-29; 27.7 µM (inactive) with K562; 31.3 µM (inactive) in the assay with LOX IMVI; 20 µM (inactive) in the assay with M14; 36.6 µM (inactive) with OVCAR-3. For the same compound, the GI50 in the assay on OVCAR-4 was 54.3 µM (inactive); in the assay with OVCAR-8, 59.2 µM (inactive); in the assay on RPMI-8226, 30.1 µM (inactive); with SF-268, 72.3 µM (inactive); with SK-OV-3 it was 28.6 µM (inactive); in the assay with SNB-19 it was 49.8 µM (inactive). The GI50 with SR was 39.6 µM (inactive); in the assay with SW-620, 31.9 µM (inactive); in the assay on TK-10, 30.8 µM (inactive); in the assay on UO-31 it was 30.6 µM (inactive).

In the case of `CC(=O)N1c2ccccc2N(C(C)=O)C1c1ccc(C2N(C(C)=O)c3ccccc3N2C(C)=O)[nH]1`, the GI50 with CCRF-CEM, in the assay with HT-29, in the assay on K562, in the assay with LOX IMVI, in the assay on M14 and in the assay with OVCAR-3 was > 100 µM (inactive) in each case. The GI50 in the assay on OVCAR-4, in the assay on OVCAR-8, in the assay with RPMI-8226, with SF-268, in the assay on SK-MEL-5 and in the assay on SK-OV-3 was > 100 µM (inactive) throughout. The GI50 in the assay with SNB-19, in the assay on SNB-75, with SR, in the assay with SW-620, with TK-10 and with UO-31 was > 100 µM (inactive) throughout.

As to `CC1CN(c2ccc(Cl)cc2)CC(C)OC(=O)O1` (stereo not drawn), the GI50 in the assay with CCRF-CEM, in the assay on HT-29, with K562, in the assay with LOX IMVI, with M14 and in the assay on OVCAR-3 was > 100 µM (inactive) throughout. Besides, the GI50 in the assay with OVCAR-4, in the assay with OVCAR-8, in the assay with RPMI-8226, in the assay on SF-268, in the assay with SK-MEL-5 and with SK-OV-3 was > 100 µM (inactive) throughout. Besides, the GI50 with SNB-19, in the assay on SNB-75, in the assay on SR, with SW-620, with TK-10 and in the assay with UO-31 was > 100 µM (inactive) each time.

With `Clc1ccc(OCc2nnc3n2N=C(c2ccc(Br)cc2)CS3)cc1`, the GI50 in the assay on CCRF-CEM was > 100 µM (inactive); with HT-29, 36.2 µM (inactive); with K562, > 100 µM (inactive); with LOX IMVI, 3.74 µM (inactive); in the assay on M14, > 10 µM (inactive); in the assay with OVCAR-3, > 10 µM (inactive). The GI50 in the assay with OVCAR-4 was 7.89 µM (inactive); in the assay on OVCAR-8, 15.9 µM (inactive); with RPMI-8226, 30.3 µM (inactive); in the assay with SK-MEL-5, > 10 µM (inactive); in the assay with SK-OV-3, 15 µM (inactive); in the assay with SNB-19 it was 23.7 µM (inactive). Also, the GI50 is 2.96 µM (inactive) in the assay with SNB-75; > 100 µM (inactive) with SR; 32.7 µM (inactive) in the assay with SW-620; 14.4 µM (inactive) in the assay on TK-10; 2.8 µM (inactive) in the assay with UO-31.

Regarding `C/C(=C\c1ccccc1)C(O)S(=O)(=O)O` (stereo not drawn), the GI50 with CCRF-CEM, with HT-29, in the assay with K562, with LOX IMVI, with M14 and in the assay with OVCAR-3 was > 100 µM (inactive) throughout. In addition, the GI50 in the assay with OVCAR-4, with OVCAR-8, in the assay with RPMI-8226, in the assay on SF-268, in the assay on SK-MEL-5 and in the assay on SK-OV-3 was > 100 µM (inactive) in each case. For the same compound, the GI50 in the assay on SNB-19, in the assay with SNB-75, in the assay with SR, in the assay on SW-620, with TK-10 and in the assay with UO-31 was > 100 µM (inactive) throughout.

`CCCCCC(=O)N[C@H]1CCc2cc(OC)c(OC)c(OC)c2-c2ccc(SC)c(=O)cc21`: the GI50 was 0.0254 µM (active) with CCRF-CEM; 0.0233 µM (active) in the assay with HT-29; < 0.01 µM (active) in the assay with K562; 0.016 µM (active) with M14; 0.0153 µM (active) in the assay on OVCAR-3; 17.5 µM (inactive) in the assay on OVCAR-4. Further, the GI50 with OVCAR-8 was 0.0253 µM (active); with RPMI-8226, 0.0181 µM (active); in the assay with SF-268, 0.0212 µM (active); in the assay on SK-MEL-5, 0.014 µM (active); in the assay with SK-OV-3, 0.0224 µM (active); with SNB-19 it was 0.0258 µM (active). In addition, the GI50 in the assay with SNB-75 was 0.0195 µM (active); in the assay on SR, 0.00421 µM (active); with SW-620, 0.0177 µM (active); in the assay with TK-10 it was 0.521 µM (active); in the assay on UO-31, 0.0308 µM (active).
